Data taken from ChEMBL document CHEMBL1145436, “Design and synthesis of 6-methyl-2-oxo-1,2,3,4-tetrahydro-pyrimidine-5-carboxylic acid derivatives as PPARgamma activators” (Bioorg Med Chem Lett, 2007).

Target: T1, Peroxisome proliferator-activated receptor gamma (Homo sapiens, UniProt P37231)
T1 sequence (P37231 whole entry): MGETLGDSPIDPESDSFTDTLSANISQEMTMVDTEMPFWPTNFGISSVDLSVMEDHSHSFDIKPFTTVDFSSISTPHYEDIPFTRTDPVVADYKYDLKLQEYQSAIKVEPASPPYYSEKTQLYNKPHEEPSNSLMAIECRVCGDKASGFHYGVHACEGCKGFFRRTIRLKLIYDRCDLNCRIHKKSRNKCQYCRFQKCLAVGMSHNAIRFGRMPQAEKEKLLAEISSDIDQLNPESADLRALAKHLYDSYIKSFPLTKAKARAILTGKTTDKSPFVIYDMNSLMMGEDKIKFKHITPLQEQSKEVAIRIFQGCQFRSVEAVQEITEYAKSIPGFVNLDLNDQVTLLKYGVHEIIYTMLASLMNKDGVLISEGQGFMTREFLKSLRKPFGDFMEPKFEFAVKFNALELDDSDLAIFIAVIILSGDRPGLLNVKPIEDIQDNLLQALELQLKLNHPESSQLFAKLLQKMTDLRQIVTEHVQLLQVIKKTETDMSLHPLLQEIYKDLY
Description: Displacement of [3H]rosiglitazone from PPAR gamma

| SMILES | IC50 [nM] |
| --- | --- |
| CC1=C(C(=O)O)C(c2ccc(OCCn3c4ccccc4c4ccccc43)cc2)NC(=O)N1 (centres undefined) | 900 |
| COc1cc(C2NC(=O)NC(C)=C2C(=O)O)ccc1OCCn1c2ccccc2c2ccccc21 (centres undefined) | 820 |
| CC1=C(C(=O)O)C(c2ccc(OCCOc3cccc4[nH]c5ccccc5c34)cc2)NC(=O)N1 (centres undefined) | 1000 |
| CC1=C(C(=O)O)C(c2ccc(OCCOc3cccc4ccc(C)nc34)cc2)NC(=O)N1 (centres undefined) | 600 |
| COc1cc(C2NC(=O)NC(C)=C2C(=O)O)ccc1OCCOc1cccc2ccc(C)nc12 (centres undefined) | 800 |
| CC1=C(C(=O)O)C(c2ccc(OCCn3ccc4cccnc43)cc2)NC(=O)N1 (centres undefined) | 1000 |
| COc1cc(C2NC(=O)NC(C)=C2C(=O)O)ccc1OCCn1ccc2cccnc21 (centres undefined) | 720 |
| CC1=C(C(=O)O)C(c2ccc(OCCOc3cc(C)nc4ccccc34)cc2)NC(=O)N1 (centres undefined) | 760 |
| COc1cc(C2NC(=O)NC(C)=C2C(=O)O)ccc1OCCOc1cc(C)nc2ccccc12 (centres undefined) | 940 |
| COc1cccc2c1c1ccccc1n2CCOc1ccc(C2NC(=O)NC(C)=C2C(=O)O)cc1 (centres undefined) | 800 |
| CC1=C(C(=O)O)C(c2ccc(OCCCn3ccc4cccnc43)cc2)NC(=O)N1 (centres undefined) | 750 |
| CC1=C(C(=O)O)C(c2ccc(OCCCOc3cc(C)nc4ccccc34)cc2)NC(=O)N1 (centres undefined) | 750 |
| CC1=C(C(=O)O)C(c2ccc(OCCOc3ccc(C(=O)c4ccc(Cl)cc4)cc3)cc2)NC(=O)N1 (centres undefined) | 930 |
| CC1=C(C(=O)O)C(c2ccc(OCCCOc3cccc4[nH]c5ccccc5c34)cc2)NC(=O)N1 (centres undefined) | 900 |
